Measurements: US11230547B2, “Purine inhibitors of human phosphatidylinositol 3-kinase delta” (Merck Sharp & Dohme Corp., priority 2017, dated 2022)

Key:
[1] = target: PI3Kalpha (Homo sapiens (Human), UniProt P42336); assay: HTRF PI3K biochemical assay, alpha isoform (selectivity versus delta); conditions: relative ratio PI3K-alpha IC50 value / PI3K-delta IC50 value
From the text: (§1) HTRF PI3K Biochemical Assay to Measure Intrinsic Potency of Compound Inhibitors
(§2) The PI3-Kinase biochemical assays were developed to measure the intrinsic potency and compound dependent inhibition of the alpha, beta, delta, and gamma PI3K isoform enzymes. This assay was developed and further optimized from a kit produced by Upstate (Millipore catalog #33-047) (Millipore Sigma, Billerica Mass., USA) and has been configured for high throughput screening (HTS) and structure-activity relationship (SAR) screening. Briefly, this procedure exploits the exquisite specificity and high affinity binding of […] phosphatidyl(3,4,5)triphosphate (PIP3) to the GRP1 pleckstrin homology (PH) domain to generate the signal. In the absence of PIP3, an HTRF (Homogeneous Time-Resolved Fluorescence energy transfer) complex is formed consisting of europium (u)-labeled anti-GST, GST tagged GRP1-PH domain, biotin-PIP3 (biotinylated-PIP3) and streptavidin conjugated APC (Allophycocyanin). The native PIP3 produced by PI3-Kinase activity disrupts in a competitive manner the biotin-PIP3 from the pleckstrin homology (PH) domain, resulting in the loss of energy transfer (HTRF complex) and a decrease in the signal. The format of this assay is the same for all 4 isoforms of PI3K; the differences lie in the concentration of enzyme used to achieve robust assay window. The alpha, beta, and delta assays are run at 0.5, 1, and 0.3 nM enzymes and the gamma assay is run at 5 nM enzyme. The ATP concentration is 100 uM in the alpha, beta, and delta assays and 50 uM adenosine triphosphate (ATP) in the gamma assay. All reactions are run at 5 uM PIP2.
(§3) Compounds are serially diluted (3-fold in 100% DMSO) across a 384-well polypropylene source plated from column 3 to column 12 and column 13 to column 22, to yield 10 concentration dose response for each test compound. Columns 1, 2, 23 and 24 contain either only DMSO or pharmacological known control inhibitor. Once titrations are made, 2.5 nL of the compounds on 384 well plates are reformatted and transferred by acoustic dispense in quadruplicates to a 1536 assay plate (Greiner) to assay across all four PI3K isoform enzymes.
(§4) The PI3-Kinase biochemical assay was optimized using the HTRF kit provided by Upstate (Millipore). The assay kit contains six reagents: 1) 4× Reaction Buffer; 2) native PIP2 (substrate); 3) Stop (EDTA); 4) Detection Mix A (Streptavidin-APC); 5) Detection Mix B (Eu-labeled Anti-GST plus GST-tagged PH-domain); 6) Detection Mix C. In addition, the following items were obtained or purchased; PI3Kinase (catalog #'s alpha 14-602, beta 14-603, gamma 14-558 and delta 14-604 from Upstate Biotechnology now EMD Millipore, Mahopac, N.Y., USA), dithiothreitol (Sigma-Aldrich Corp. (St. Louis, Mo., USA) Catalog #D-5545), Adenosine-5′ triphosphate (InVitrogen (Waltham, Mass., USA), Cat#AS001A), native PIP3 (PI(3,4,5)P3, diC8, H^+, CELLSIGNALS, INC., (Columbus, Ohio, USA) Cat #907) DMSO ((Sigma-Aldrich Corp. (St. Louis, Mo., USA) Catalog #472301).
(§5) PI3Kinase Reaction Buffer is prepared by dilution the stock 1:4 with de-ionized water. DTT (DL-Dithiothreitol), phosphatidylinositol 4,5-bisphosphate (PIP2) and Biotin-PIP3 were added to 1536 assay plate at a final concentration of 5 mM, […] and 25 nM on the day of use. Enzyme addition and compound pre-incubation are initiated by the addition of 1.25 ul of PI3K (at twice its final concentration) in the 1× reaction buffer to all wells using a BioRaptr™ (Beckman Coulter, Waltham, Mass. USA). Plates are incubated at room temperature for 15 minutes. Reactions are initiated by addition of 1.25 ul of 2× substrate solution (PIP2 and ATP in 1× reaction buffer) using BioRaptr™. Plates are incubated in humidified chamber at room temperature for one hour. Reactions are quenched by addition of 0.625 uL of stop solution to all wells using the BioRaptr™. […]

[2] = target: PI3Kdelta (Homo sapiens (Human), UniProt O00329); assay: HTRF PI3K biochemical assay, delta isoform; conditions: 0.3 nM enzyme, 100 uM ATP, 5 uM PIP2, form screened per table
From the text: as §1, §2, §3, §4, §5

PI3Kalpha, sequence (P42336 whole entry, canonical isoform): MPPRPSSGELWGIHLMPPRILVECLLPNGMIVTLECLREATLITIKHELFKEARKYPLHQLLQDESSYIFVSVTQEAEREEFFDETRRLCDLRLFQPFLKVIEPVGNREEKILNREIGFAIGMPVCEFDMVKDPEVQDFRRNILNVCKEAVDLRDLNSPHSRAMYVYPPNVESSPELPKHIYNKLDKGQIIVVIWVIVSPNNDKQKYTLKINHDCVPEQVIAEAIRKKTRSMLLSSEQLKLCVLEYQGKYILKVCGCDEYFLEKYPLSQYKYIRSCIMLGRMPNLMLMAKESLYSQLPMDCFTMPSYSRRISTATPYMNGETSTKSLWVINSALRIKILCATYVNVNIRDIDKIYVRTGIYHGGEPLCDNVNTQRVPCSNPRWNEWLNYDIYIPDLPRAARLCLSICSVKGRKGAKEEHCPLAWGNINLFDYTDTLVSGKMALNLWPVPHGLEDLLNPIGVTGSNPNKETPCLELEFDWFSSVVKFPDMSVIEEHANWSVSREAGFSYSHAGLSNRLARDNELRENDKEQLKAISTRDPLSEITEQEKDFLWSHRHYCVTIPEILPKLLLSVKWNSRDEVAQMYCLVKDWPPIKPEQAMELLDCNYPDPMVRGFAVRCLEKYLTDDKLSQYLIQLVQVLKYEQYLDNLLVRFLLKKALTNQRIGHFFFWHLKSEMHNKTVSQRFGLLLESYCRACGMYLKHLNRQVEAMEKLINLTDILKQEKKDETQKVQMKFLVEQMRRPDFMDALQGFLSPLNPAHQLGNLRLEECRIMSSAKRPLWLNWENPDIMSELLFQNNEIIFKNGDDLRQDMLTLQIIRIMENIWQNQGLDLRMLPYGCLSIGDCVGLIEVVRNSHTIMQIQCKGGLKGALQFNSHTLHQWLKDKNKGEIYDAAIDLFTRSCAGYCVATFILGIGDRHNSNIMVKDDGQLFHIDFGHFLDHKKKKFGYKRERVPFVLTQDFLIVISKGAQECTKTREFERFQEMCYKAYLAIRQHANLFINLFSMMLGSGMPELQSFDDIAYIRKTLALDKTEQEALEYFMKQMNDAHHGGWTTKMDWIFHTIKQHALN
PI3Kalpha, sequence (P27986 whole entry partner, canonical isoform): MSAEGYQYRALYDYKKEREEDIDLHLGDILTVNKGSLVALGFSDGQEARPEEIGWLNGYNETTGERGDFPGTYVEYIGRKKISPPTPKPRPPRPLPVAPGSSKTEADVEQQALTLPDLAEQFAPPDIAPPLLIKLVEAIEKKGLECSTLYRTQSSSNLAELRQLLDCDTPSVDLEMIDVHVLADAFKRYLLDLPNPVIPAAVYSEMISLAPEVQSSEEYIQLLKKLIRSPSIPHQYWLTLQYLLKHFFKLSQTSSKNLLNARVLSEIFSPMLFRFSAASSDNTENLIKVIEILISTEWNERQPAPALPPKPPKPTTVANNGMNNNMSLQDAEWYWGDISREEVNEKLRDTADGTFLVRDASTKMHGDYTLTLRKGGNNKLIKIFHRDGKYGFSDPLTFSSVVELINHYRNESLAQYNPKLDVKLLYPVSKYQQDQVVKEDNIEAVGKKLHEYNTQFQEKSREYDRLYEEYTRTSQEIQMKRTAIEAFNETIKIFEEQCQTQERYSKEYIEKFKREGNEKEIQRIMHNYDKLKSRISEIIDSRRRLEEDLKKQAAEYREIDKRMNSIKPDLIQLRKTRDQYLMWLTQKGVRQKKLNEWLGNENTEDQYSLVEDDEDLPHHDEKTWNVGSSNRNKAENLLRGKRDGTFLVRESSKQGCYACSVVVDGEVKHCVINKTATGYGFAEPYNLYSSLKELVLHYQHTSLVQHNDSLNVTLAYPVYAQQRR
PI3Kdelta, sequence (O00329 whole entry, canonical isoform): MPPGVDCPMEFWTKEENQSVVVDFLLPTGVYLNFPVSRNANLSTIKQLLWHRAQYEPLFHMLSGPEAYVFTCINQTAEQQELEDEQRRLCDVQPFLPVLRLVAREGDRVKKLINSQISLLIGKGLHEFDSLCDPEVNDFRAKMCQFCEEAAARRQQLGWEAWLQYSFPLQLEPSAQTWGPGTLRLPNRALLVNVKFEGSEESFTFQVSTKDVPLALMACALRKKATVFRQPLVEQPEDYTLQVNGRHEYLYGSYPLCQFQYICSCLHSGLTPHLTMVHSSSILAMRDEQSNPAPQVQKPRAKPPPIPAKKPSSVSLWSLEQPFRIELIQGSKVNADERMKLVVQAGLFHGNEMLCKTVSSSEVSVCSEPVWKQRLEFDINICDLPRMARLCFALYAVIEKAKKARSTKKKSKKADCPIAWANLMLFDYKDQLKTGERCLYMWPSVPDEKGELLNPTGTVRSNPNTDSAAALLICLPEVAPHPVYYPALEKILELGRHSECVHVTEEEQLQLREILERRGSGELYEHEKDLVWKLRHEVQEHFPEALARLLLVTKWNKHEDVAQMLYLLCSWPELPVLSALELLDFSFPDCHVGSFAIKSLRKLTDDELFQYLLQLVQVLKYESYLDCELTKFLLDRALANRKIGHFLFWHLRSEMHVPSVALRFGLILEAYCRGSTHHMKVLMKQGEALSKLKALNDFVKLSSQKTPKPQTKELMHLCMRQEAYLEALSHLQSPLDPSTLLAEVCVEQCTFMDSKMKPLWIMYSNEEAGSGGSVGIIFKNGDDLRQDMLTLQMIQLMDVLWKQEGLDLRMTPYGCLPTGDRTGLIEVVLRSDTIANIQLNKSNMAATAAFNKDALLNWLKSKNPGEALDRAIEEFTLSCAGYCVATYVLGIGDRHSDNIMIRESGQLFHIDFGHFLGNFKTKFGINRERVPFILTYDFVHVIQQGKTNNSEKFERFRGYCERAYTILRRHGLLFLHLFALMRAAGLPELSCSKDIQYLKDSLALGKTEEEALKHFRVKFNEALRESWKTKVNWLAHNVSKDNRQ
PI3Kdelta, sequence (P27986 whole entry partner, canonical isoform): as the sequence (P27986 whole entry partner, canonical isoform) above

Structure (SMILES) | Selectivity versus PI3Kalpha [1] | IC50 [2] [nM]
N#Cc1cnc(-c2cn[nH]c2)nc1N1C[C@@H]2C[C@H]1CN2c1cccc(F)c1 [Compound 1-7, 4-[(1S,4S)-5-(3-fluorophenyl)-2,5-diazabicyclo[2.2.1]hept-2-yl]-2-(1H-pyrazol-4-yl)pyrimidine-5-carbonitrile] | >10 | 42
Cn1cc(-c2ncc(C#N)c(N3C[C@@H]4C[C@H]3CN4c3cccc(F)c3)n2)cn1 [Compound 1-16, 4-[(1S,4S)-5-(3-fluorophenyl)-2,5-diazabicyclo[2.2.1]hept-2-yl]-2-(1-methyl-1H-pyrazol-4-yl)pyrimidine-5-carbonitrile] | >10 | 31
Cn1cc(-c2ncc(C#N)c(N3CCN(c4cccc(F)c4)C(C)(C)C3)n2)cn1 [Compound 3-1, 4-[4-(3-fluorophenyl)-3,3-dimethylpiperazin-1-yl]-2-(1-methyl-1H-pyrazol-4-yl)pyrimidine-5-carbonitrile] | 8 | 1500
Cn1cc(-c2ncc(C#N)c(N3CCN(c4cccc(F)c4)CC3)n2)cn1 [Compound 3-2, 4-[4-(3-fluorophenyl)piperazin-1-yl]-2-(1-methyl-1H-pyrazol-4-yl)pyrimidine-5-carbonitrile] | 7 | 1600
C[C@@H]1CN(c2nc(-c3cnn(C)c3)ncc2C#N)CCN1c1cccc(F)c1 [Compound 3-3, 4-[(3R)-4-(3-fluorophenyl)-3-methylpiperazin-1-yl]-2-(1-methyl-1H-pyrazol-4-yl)pyrimidine-5-carbonitrile] | >10 | 170
Cn1cc(-c2ncc(C#N)c(N3CC4CCC(C3)N4c3cccc(F)c3)n2)cn1 [Compound 3-4, 4-[8-(3-fluorophenyl)-3,8-diazabicyclo[3.2.1]oct-3-yl]-2-(1-methyl-1H-pyrazol-4-yl)pyrimidine-5-carbonitrile] | >10 | 1000
C[C@@H]1CN(c2nc(-c3cnn(C)c3)ncc2C#N)CCN1C(=O)C1CC1 [Compound 4-1, 4-[(3R)-4-(cyclopropylcarbonyl)-3-methylpiperazin-1-yl]-2-(1-methyl-1H-pyrazol-4-yl)pyrimidine-5-carbonitrile] | >10 | 110
CCC(=O)N1CCN(c2nc(-c3cnn(C)c3)ncc2C#N)C[C@H]1C [Compound 4-2, 4-[(3R)-3-methyl-4-propanoylpiperazin-1-yl]-2-(1-methyl-1H-pyrazol-4-yl)pyrimidine-5-carbonitrile] | >10 | 260
C[C@@H]1CN(c2nc(-c3cnn(C)c3)ncc2C#N)CCN1C(=O)C1CCC1 [Compound 4-3, 4-[(3R)-4-(cyclobutylcarbonyl)-3-methylpiperazin-1-yl]-2-(1-methyl-1H-pyrazol-4-yl)pyrimidine-5-carbonitrile] | >10 | 370
C[C@@H]1CN(c2nc(-c3cnn(C)c3)ncc2C#N)CCN1C(=O)C1(C)CC1 [Compound 4-4, 4-{(3R)-3-methyl-4-[(1-methylcyclopropyl)carbonyl]piperazin-1-yl}-2-(1-methyl-1H-pyrazol-4-yl)pyrimidine-5-carbonitrile] | >10 | 1100
C[C@@H]1CN(c2nc(-c3cnn(C)c3)ncc2C#N)CCN1C(=O)C1CCC1(F)F (stereo partly drawn) [Compound 4-5, 4-{(3R)-4-[(2,2-difluorocyclobutyl)carbonyl]-3-methylpiperazin-1-yl}-2-(1-methyl-1H-pyrazol-4-yl)pyrimidine-5-carbonitrile] | >10 | 550
C[C@@H]1CN(c2nc(-c3cnn(C)c3)ncc2C#N)CCN1C(=O)C1CCCC1 [Compound 4-6, 4-[(3R)-4-(cyclopentylcarbonyl)-3-methylpiperazin-1-yl]-2-(1-methyl-1H-pyrazol-4-yl)pyrimidine-5-carbonitrile] | >10 | 870
C[C@@H]1CN(c2nc(-c3cnn(C)c3)ncc2C#N)CCN1C(=O)C1CC12CCCC2 (stereo partly drawn) [Compound 4-7, 2-(1-methyl-1H-pyrazol-4-yl)-4-[(3R)-3-methyl-4-(spiro[2.4]hept-1-ylcarbonyl)piperazin-1-yl]pyrimidine-5-carbonitrile] | >10 | 87
C[C@@H]1C[C@H]1C(=O)N1CCN(c2nc(-c3cnn(C)c3)ncc2C#N)C[C@H]1C [Compound 4-8, 4-[(3R)-3-methyl-4-{[(1R,2R)-2-methylcyclopropyl]carbonyl}piperazin-1-yl]-2-(1-methyl-1H-pyrazol-4-yl)pyrimidine-5-carbonitrile] | >10 | 32
C[C@@H]1C[C@@H]1C(=O)N1CCN(c2nc(-c3cnn(C)c3)ncc2C#N)C[C@H]1C [Compound 4-9, 4-[(3R)-3-methyl-4-{[(1S,2R)-2-methylcyclopropyl]carbonyl}piperazin-1-yl]-2-(1-methyl-1H-pyrazol-4-yl)pyrimidine-5-carbonitrile] | >10 | 80
C[C@@H]1CN(c2nc(-c3cnn(C)c3)ncc2C#N)CCN1c1cccc([N+](=O)[O-])c1 [Compound 4-11, 4-[(3R)-3-methyl-4-(3-nitrophenyl)piperazin-1-yl]-2-(1-methyl-1H-pyrazol-4-yl)pyrimidine-5-carbonitrile] | >10 | 78
C[C@@H]1CN(c2nc(-c3cnn(C)c3)ncc2C#N)CCN1c1cccc(C#N)c1 [Compound 4-12, 4-[(3R)-4-(3-cyanophenyl)-3-methylpiperazin-1-yl]-2-(1-methyl-1H-pyrazol-4-yl)pyrimidine-5-carbonitrile] | >10 | 86
C[C@@H]1CN(c2nc(-c3cnn(C)c3)ncc2C#N)CCN1c1cccc(S(C)(=O)=O)c1 [Compound 4-13, 4-{(3R)-3-methyl-4-[3-(methylsulfonyl)phenyl]piperazin-1-yl}-2-(1-methyl-1H-pyrazol-4-yl)pyrimidine-5-carbonitrile] | >10 | 30
C[C@@H]1CN(c2ncc(C#CCO)c(-c3cnn(C)c3)n2)CCN1C(=O)C1CC1 [Compound 5-1, 3-{2-[(3R)-4-(cyclopropylcarbonyl)-3-methylpiperazin-1-yl]-4-(1-methyl-1H-pyrazol-4-yl)pyrimidin-5-yl}prop-2-yn-1-ol] | >10 | 19
C[C@@H]1CN(c2nc(C#N)cc(-c3cnn(C)c3)n2)CCN1C(=O)C1CC1 [Compound 5-2, 2-[(3R)-4-(cyclopropylcarbonyl)-3-methylpiperazin-1-yl]-6-(1-methyl-1H-pyrazol-4-yl)pyrimidine-4-carbonitrile] | >10 | 240
C[C@@H]1CN(c2cc(C#N)nc(-c3cnn(C)c3)n2)CCN1C(=O)C1CC1 [Compound 5-3, 6-[(3R)-4-(cyclopropylcarbonyl)-3-methylpiperazin-1-yl]-2-(1-methyl-1H-pyrazol-4-yl)pyrimidine-4-carbonitrile] | >10 | 240
C[C@@H]1CN(c2ncc(C#N)c(-c3cnn(C)c3)n2)CCN1C(=O)C1CC1 [Compound 5-4, 2-[(3R)-4-(cyclopropylcarbonyl)-3-methylpiperazin-1-yl]-4-(1-methyl-1H-pyrazol-4-yl)pyrimidine-5-carbonitrile] | >10 | 21
